Experimental data published in patent US20250049791A1, “Synthesis of MEK7 Inhibitors and methods of Use Thereof” (Northwestern University, priority 2023, published 2025).
“Also recorded” adds a separate entry of the source.

Legend:
90 wildtype kinases = experiment: ScanEDGE 97-kinase selectivity screen (DiscoverX/Eurofins), panel and S-score; type: binding
Text: (§1) The ScanEDGE assay, completed by DiscoverX (Eurofins) is a proprietary active site-directed competition binding assay. Compounds that bind the kinase active site prevent kinase binding to the immobilized ligand, reducing the amount of kinase captured on the solid support. Hits are identified by measuring the amount of kinase captured in experimental vs, control samples by a qPCR method that detects an associated DNA label. According to data provided by Eurofins, a typical hit at 5-10% of control signal in a 1 μM assay as shown above is generally associated with a KD in the range of 100-1,000 nM. Readings with greater than 35% of control signal correspond to exceeding large dissociation constants.
Selectivity score (or S-score) is a quantitative measure of compound selectivity corresponding to the ratio of hits to the number of screened wildtype kinases.

Jurkat and KOPTK1 = experiment: Washout cytotoxicity experiment; type: cell-based; details: 18 hours with compound, washed, 30 hours
Method: T-cell cell lines Jurkat and KOPTK1 were plated in triplicates (20×10^4 cells per 96-well plate) and cultured with different concentrations of DK-2403 compound for 18 hours. Cells were washed twice to remove DK-2403 and incubated for 30 hours. Cell viability was measured (48 hours) using CellTiter-Glo luminescent cell viability assay.

[1] = test system: JNK and ATF2 phosphorylation in T-ALL cells; experiment: Immunoblot analysis of JNK and ATF2 phosphorylation; type: cell-based
Method: Cells were lysed with SDS lysis buffer containing (10 mM Tris pH 7.4 containing 1% SDS and 1 mM PMSF) and supplemented with Halt Protease and Phosphatase Inhibitor Cocktail (ThermoFisher) after 24 h of incubation. Protein lysates were electrophoresed onto SDS PAGE gel and transferred to the PVDF membrane using the iBLOT system. Antibodies phospho-SAPK/JNK (clone 81E11) (#4668) and SAPK/JNK (#9252) were used at 1:5000 dilution. Secondary antibodies cross-linked with HRP (anti-rabbit IgG #7074 and anti-mouse IgG #7076) were used for respective primary antibodies at concentrations 1:20,000. Protein detection was performed using West Femto Maximum Sensitivity Substrate (ThermoFisher) and Amersham Hyperfilm ECL (GE).

JNK1/2/3 = experiment: ScanEDGE competition binding, JNK1/2/3; details: ScanEDGE screen
Text: as §1

MEK1/2 = experiment: ScanEDGE competition binding, MEK1/2; details: ScanEDGE screen
Text: as §1

MEK5 = target: T1, MEK5 (Homo sapiens, UniProt Q13163); experiment: Additional selectivity assay, MEK5 (FIG. 9); type: binding
T1 sequence (Q13163 1-448): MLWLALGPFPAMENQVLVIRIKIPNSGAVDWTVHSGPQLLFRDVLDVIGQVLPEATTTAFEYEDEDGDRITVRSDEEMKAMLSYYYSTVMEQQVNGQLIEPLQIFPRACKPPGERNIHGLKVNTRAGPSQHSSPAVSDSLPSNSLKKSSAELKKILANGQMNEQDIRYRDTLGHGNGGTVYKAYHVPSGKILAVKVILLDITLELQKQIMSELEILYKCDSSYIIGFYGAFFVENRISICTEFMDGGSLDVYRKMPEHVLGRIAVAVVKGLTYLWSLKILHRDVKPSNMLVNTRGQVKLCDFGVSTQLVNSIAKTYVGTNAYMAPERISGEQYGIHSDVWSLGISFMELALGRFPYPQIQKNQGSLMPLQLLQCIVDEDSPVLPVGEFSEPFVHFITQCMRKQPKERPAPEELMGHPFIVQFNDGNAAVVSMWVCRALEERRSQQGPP

EGFR = target: T2, EGFR (Homo sapiens, UniProt P00533); experiment: ScanEDGE competition binding, EGFR; details: at 1 μM; b168 prints 1 M
T2 construct: purchased DiscoverX (Eurofins)
T2 sequence (P00533 25-1210): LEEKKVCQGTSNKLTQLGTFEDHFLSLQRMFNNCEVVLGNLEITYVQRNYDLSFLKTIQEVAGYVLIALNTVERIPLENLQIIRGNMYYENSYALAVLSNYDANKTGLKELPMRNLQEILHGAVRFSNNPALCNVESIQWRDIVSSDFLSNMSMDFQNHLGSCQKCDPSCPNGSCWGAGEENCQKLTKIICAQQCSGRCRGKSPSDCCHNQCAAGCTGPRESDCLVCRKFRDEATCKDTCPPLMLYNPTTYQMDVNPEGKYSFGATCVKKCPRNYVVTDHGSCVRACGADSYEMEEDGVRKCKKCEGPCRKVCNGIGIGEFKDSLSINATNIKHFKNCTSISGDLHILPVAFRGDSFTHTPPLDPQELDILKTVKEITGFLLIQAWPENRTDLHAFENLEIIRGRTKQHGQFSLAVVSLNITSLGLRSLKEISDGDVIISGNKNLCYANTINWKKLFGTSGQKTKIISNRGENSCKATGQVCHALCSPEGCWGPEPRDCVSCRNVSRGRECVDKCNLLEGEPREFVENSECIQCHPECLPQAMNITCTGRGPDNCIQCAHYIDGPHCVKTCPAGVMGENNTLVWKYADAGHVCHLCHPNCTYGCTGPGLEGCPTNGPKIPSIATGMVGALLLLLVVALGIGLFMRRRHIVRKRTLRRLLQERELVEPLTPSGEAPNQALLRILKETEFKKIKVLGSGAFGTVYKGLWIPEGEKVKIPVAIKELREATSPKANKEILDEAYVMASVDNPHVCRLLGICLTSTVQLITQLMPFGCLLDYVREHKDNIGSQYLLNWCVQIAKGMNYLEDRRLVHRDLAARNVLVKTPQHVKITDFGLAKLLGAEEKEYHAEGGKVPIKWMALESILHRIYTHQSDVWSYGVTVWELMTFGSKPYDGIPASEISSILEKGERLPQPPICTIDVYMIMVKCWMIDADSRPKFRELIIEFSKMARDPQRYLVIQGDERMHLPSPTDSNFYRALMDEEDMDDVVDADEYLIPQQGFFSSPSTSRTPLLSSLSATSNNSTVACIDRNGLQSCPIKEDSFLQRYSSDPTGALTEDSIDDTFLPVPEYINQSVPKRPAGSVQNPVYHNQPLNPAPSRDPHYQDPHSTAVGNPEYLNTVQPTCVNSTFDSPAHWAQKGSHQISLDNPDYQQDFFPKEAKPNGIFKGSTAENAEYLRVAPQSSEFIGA
Text: as §1

- Number of Hits, S(1) (90 wildtype kinases; 1000 nM, 90 non-mutant kinases): 0
- Number of Hits, S(10) (90 wildtype kinases; 1000 nM, 90 non-mutant kinases): 1
- Number of Hits, S(35) (90 wildtype kinases; 1000 nM, 90 non-mutant kinases): 1
- Selectivity Score S(10) (90 wildtype kinases; 1000 nM, 90 non-mutant kinases): 0.011
- Selectivity Score S(35) (90 wildtype kinases; 1000 nM, 90 non-mutant kinases): 0.011
- selectivity score after adding MEK3, MEK5 and MEK6 (1/93) (90 wildtype kinases; 93 kinases): 0.011
- activity on JNK1/2/3 (JNK1/2/3): no appreciable activity
- activity on MEK1/2 (MEK1/2): no appreciable activity
- activity/binding at MEK5 (MEK5): inactive; also recorded: lack of binding
SMILES: O=C(CCl)Nc1cccc(Oc2cc(NCc3ccccc3)ncn2)c1 [Compound 25, N-(3-((6-(benzylamino)pyrimidin-4-yl)oxy)phenyl)-2-chloroacetamide]
- cytotoxicity after washout (Jurkat and KOPTK1): resistant to washout
- concentration that potently attenuated JNK and ATF2 phosphorylation ([1]; 24 h incubation): 5 to 10 µM
- effect on phosphorylation of JNK and ATF2 ([1]; western blot, dose-response): decreased phosphorylation
- binding to EGFR (EGFR): interacted significantly; also recorded: appreciably bound
